Tested on: 966289-007-R4-J1-PDC complex spheroid viability
Test: Anticancer human tumor 966289-007-R4-J1-PDC patient-derived pancreatic adenocarcinoma cell line growth inhibition [RAS]
Settings: for IC50: curve of first compound; for viability, T/C: stronger effect = lower value
Method in brief: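 Tumour cells grown as complex spheroids with HUVEC endothelial cells and mesenchymal stem cells, treated with RAS pathway inhibitor combinations. Each agent spans half-log steps from near clinical Cmax, or 10 microM where Cmax is unknown.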
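Also: spheroids exposed to agents for one week before readout.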
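For viability, T/C in this document: percent viability relative to DMSO vehicle control wells as 100%.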

Structure (SMILES): CC(C)NCC(C(=O)N1CCN(c2ncnc3c2C(C)CC3O)CC1)c1ccc(Cl)cc1 (configuration not stated) + CCn1c(-c2cc(N3CCN(C)CC3)cnc2C(C)OC)c2c3cc(ccc31)-c1csc(n1)CC(NC(=O)C1CC1C)C(=O)N1CCCC(N1)C(=O)OCC(C)(C)C2
- IC50 (second compound 0.000949 µM): 5.85 µM
- IC50 (second compound 0.003 µM): 4.53 µM
- IC50 (second compound 0.00949 µM): 5.06 µM
- IC50 (second compound 0.03 µM): 4.79 µM
- IC50 (second compound 0.0949 µM): 2.99 µM
- IC50 (second compound 0.3 µM): 4.07 µM
- viability, T/C (second compound 0.000949 µM, first compound 0.0316 µM): 115%
- viability, T/C (second compound 0.000949 µM, first compound 0.1 µM): 76.5%
- viability, T/C (second compound 0.000949 µM, first compound 0.316 µM): 119%
- viability, T/C (second compound 0.000949 µM, first compound 1 µM): 83.1%
- viability, T/C (second compound 0.000949 µM, first compound 3.16 µM): 68.4%
- viability, T/C (second compound 0.000949 µM, first compound 10 µM): 35.2%
- viability, T/C (second compound 0.003 µM, first compound 0.0316 µM): 106%
- viability, T/C (second compound 0.003 µM, first compound 0.1 µM): 92.5%
- viability, T/C (second compound 0.003 µM, first compound 0.316 µM): 91.8%
- viability, T/C (second compound 0.003 µM, first compound 1 µM): 95.3%
- viability, T/C (second compound 0.003 µM, first compound 3.16 µM): 58.1%
- viability, T/C (second compound 0.003 µM, first compound 10 µM): 32.2%
- viability, T/C (second compound 0.00949 µM, first compound 0.0316 µM): 85.5%
- viability, T/C (second compound 0.00949 µM, first compound 0.1 µM): 98.6%
- viability, T/C (second compound 0.00949 µM, first compound 0.316 µM): 103%
- viability, T/C (second compound 0.00949 µM, first compound 1 µM): 97.2%
- viability, T/C (second compound 0.00949 µM, first compound 3.16 µM): 61.3%
- viability, T/C (second compound 0.00949 µM, first compound 10 µM): 33.6%
- viability, T/C (second compound 0.03 µM, first compound 0.0316 µM): 75.1%
- viability, T/C (second compound 0.03 µM, first compound 0.1 µM): 97.4%
- viability, T/C (second compound 0.03 µM, first compound 0.316 µM): 99.2%
- viability, T/C (second compound 0.03 µM, first compound 1 µM): 97.6%
- viability, T/C (second compound 0.03 µM, first compound 3.16 µM): 61.6%
- viability, T/C (second compound 0.03 µM, first compound 10 µM): 29.4%
- viability, T/C (second compound 0.0949 µM, first compound 0.0316 µM): 77.1%
- viability, T/C (second compound 0.0949 µM, first compound 0.1 µM): 90.7%
- viability, T/C (second compound 0.0949 µM, first compound 0.316 µM): 113%
- viability, T/C (second compound 0.0949 µM, first compound 1 µM): 92.7%
- viability, T/C (second compound 0.0949 µM, first compound 3.16 µM): 47.9%
- viability, T/C (second compound 0.0949 µM, first compound 10 µM): 27.3%
- viability, T/C (second compound 0.3 µM, first compound 0.0316 µM): 83.7%
- viability, T/C (second compound 0.3 µM, first compound 0.1 µM): 102%
- viability, T/C (second compound 0.3 µM, first compound 0.316 µM): 112%
- viability, T/C (second compound 0.3 µM, first compound 1 µM): 98.3%
- viability, T/C (second compound 0.3 µM, first compound 3.16 µM): 57.4%
- viability, T/C (second compound 0.3 µM, first compound 10 µM): 23.8%
